# Test system: cholesterol absorption from the intestine
# Assay: In Vivo Assay of Hypolipidemic Agents using the Rat Cholesterol Absorption Model
# Design: species or system Female Sprague-Dawley rats
# Settings: po, Table 1, footnote 1, perorally, 10 mg/kg, 3H levels in serum three hours after 3H-cholesterol
# Method in brief: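 Fasted female Sprague-Dawley rats (150–250 g, 4–6/group) received compound orally in olive oil or vehicle. Thirty minutes later they were given 3–5 µCi ^3H-cholesterol orally in olive oil, and serum ^3H was counted at 3 h. Percent inhibition versus vehicle control is at a fixed dose; ED50 is the dose giving half-maximal effect on serum ^3H.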
row,SMILES,inhibition at 10 mg/kg [%]
1,"CC(=O)Nc1cccc(-c2ccc([C@@H]3[C@@H](CC[C@H](O)c4ccc(F)cc4)C(=O)N3c3ccc(F)cc3)cc2)c1 [Example 26, N-(4'-{(2S,3R)-1-(4-fluorophenyl)-3-[(3S)-3-(4-fluorophenyl)-3-hydroxypropyl]-4-oxoazetidin-2-yl}biphenyl-3-yl)acetamide]",76
2,"COc1ccc(-c2ccc([C@@H]3[C@@H](CC[C@H](O)c4ccc(F)cc4)C(=O)N3c3ccc(F)cc3)cc2)cc1 [Example 5, (3R,4S)-1-(4-fluorophenyl)-3-[(3S)-3-(4-fluorophenyl)-3-hydroxypropyl]-4-(4'-methoxybiphenyl-4-yl)azetidin-2-one]",26

# Same assay, conditions: po, Table 1, footnote 3, perorally, 5 mg/kg, 3H levels in serum three hours after 3H-cholesterol
row,SMILES,inhibition at 5 mg/kg [%]
1,"N#Cc1cccc(-c2ccc([C@@H]3[C@@H](CC[C@H](O)c4ccc(F)cc4)C(=O)N3c3ccc(F)cc3)cc2)c1 [Example 14, 4'-{(2S,3R)-1-(4-fluorophenyl)-3-[(3S)-3-(4-fluorophenyl)-3-hydroxypropyl]-4-oxoazetidin-2-yl}biphenyl-3-carbonitrile]",32

# Same assay, conditions: po, Table 1, perorally, 1 mg/kg, 3H levels in serum three hours after 3H-cholesterol, versus vehicle only control
row,SMILES,inhibition at 1 mg/kg [%]
1,"O=C1[C@H](CC[C@H](O)c2ccc(F)cc2)[C@@H](c2ccc(-c3ccc(O)cc3O)cc2)N1c1ccc(F)cc1 [Example 108, (3R,4S)-4-(2',4'-dihydroxybiphenyl-4-yl)-1-(4-fluorophenyl)-3-[(3S)-3-(4-fluorophenyl)-3-hydroxypropyl]azetidin-2-one]",69
2,"O=C(O)Cc1ccc(-c2ccc([C@@H]3[C@@H](CC[C@H](O)c4ccc(F)cc4)C(=O)N3c3ccc(F)cc3)cc2)cc1 [Example 88, (4'-{(2S,3R)-1-(4-fluorophenyl)-3-[(3S)-3-(4-fluorophenyl)-3-hydroxypropyl]-4-oxoazetidin-2-yl}biphenyl-4-yl)acetic acid]",30
3,"COc1ccc(-c2ccc([C@@H]3[C@@H](CC[C@H](O)c4ccc(F)cc4)C(=O)N3c3ccc(F)cc3)cc2)cc1OC [Example 81, (3R,4S)-4-(3',4'-dimethoxybiphenyl-4-yl)-1-(4-fluorophenyl)-3-[(3 S)-3-(4-fluorophenyl)-3-hydroxypropyl]azetidin-2-one]",17
4,"CCCOc1cccc(-c2ccc([C@@H]3[C@@H](CC[C@H](O)c4ccc(F)cc4)C(=O)N3c3ccc(F)cc3)cc2)c1 [Example 103, (3R,4S)-1-(4-fluorophenyl)-3-[(3S)-3-(4-fluorophenyl)-3-hydroxypropyl]-4-(3'-propoxybiphenyl-4-yl)azetidin-2-one]",21
5,"O=C1[C@H](CC[C@H](O)c2ccc(F)cc2)[C@@H](c2ccc(-c3cc(O)cc(F)c3)cc2)N1c1ccc(F)cc1 [Example 112, (3R,4S)-4-(3'-fluoro-5'-hydroxybiphenyl-4-yl)-1-(4-fluorophenyl)-3-[(3S)-3-(4-fluorophenyl)-3-hydroxypropyl]azetidin-2-one]",75
6,"COC(=O)c1ccc(-c2ccc([C@@H]3[C@@H](CC[C@H](O)c4ccc(F)cc4)C(=O)N3c3ccc(F)cc3)cc2)cc1 [Example 89, methyl 4'-{(2S,3R)-1-(4-fluorophenyl)-3-[(3S)-3-(4-fluorophenyl)-3-hydroxypropyl]-4-oxoazetidin-2-yl} biphenyl-4-carboxylate]",45
7,"COc1ccc(C=O)c(-c2ccc([C@@H]3[C@@H](CC[C@H](O)c4ccc(F)cc4)C(=O)N3c3ccc(F)cc3)cc2)c1 [Example 85, 4'-{(2S,3R)-1-(4-fluorophenyl)-3-[(3S)-3-(4-fluorophenyl)-3-hydroxypropyl]-4-oxoazetidin-2-yl}-5-methoxybiphenyl-2-carbaldehyde]",15
8,"O=C1[C@H](CC[C@H](O)c2ccc(F)cc2)[C@@H](c2ccc(-c3cccc(P(=O)(O)O)c3)cc2)N1c1ccccc1 [Example 56, (4'-{(2S,3R)-3-[(3S)-3-(4-Fluorophenyl)-3-hydroxypropyl]-4-oxo-1-phenylazetidin-2-yl}biphenyl-3-yl)phosphonic acid]",59
9,"COc1cc(-c2ccc([C@@H]3[C@@H](CC[C@H](O)c4ccc(F)cc4)C(=O)N3c3ccc(F)cc3)cc2)ccc1O [Example 102, (3R,4S)-1-(4-fluorophenyl)-3-[(3S)-3-(4-fluorophenyl)-3-hydroxypropyl]-4-(4'-hydroxy-3'-methoxybiphenyl-4-yl)azetidin-2-one]",56
10,"O=C(O)c1cc(-c2ccc([C@@H]3[C@@H](CC[C@H](O)c4ccc(F)cc4)C(=O)N3c3ccc(F)cc3)cc2)ccc1O [Example 106, 4'-{(2S,3R)-1-(4-fluorophenyl)-3-[(3S)-3-(4-fluorophenyl)-3-hydroxypropyl]-4-oxoazetidin-2-yl}-4-hydroxybiphenyl-3-carboxylic acid]",66
11,"CC(C)Oc1cccc(-c2ccc([C@@H]3[C@@H](CC[C@H](O)c4ccc(F)cc4)C(=O)N3c3ccc(F)cc3)cc2)c1 [Example 105, (3R,4S)-1-(4-fluorophenyl)-3-[(3S)-3-(4-fluorophenyl)-3-hydroxypropyl]-4-(3'-isopropoxybiphenyl-4-yl)azetidin-2-one]",15
12,"Nc1cccc(-c2ccc([C@@H]3[C@@H](CC[C@H](O)c4ccc(F)cc4)C(=O)N3c3ccc(F)cc3)cc2)c1 [Example 86, (3R,4S)-4-(3'-aminabiphenyl-4-yl)-1-(4-fluorophenyl)-3-[(3S)-3-(4-fluorophenyl)-3-hydroxypropyl]azetidin-2-one]",35

# Same assay, conditions: po, Table 2, perorally, 1 mg/kg, 3H levels in serum three hours after 3H-cholesterol, versus vehicle only control
row,SMILES,inhibition at 1 mg/kg [%]
1,"O=C1[C@H](CC[C@H](O)c2ccc(F)cc2)[C@@H](c2ccc(-c3cccc([C@@H]4O[C@H](CO)[C@@H](O)[C@H](O)[C@H]4O)c3)cc2)N1c1ccccc1 [Example 64, (1S)-1,5-anhydro-1-(4'-{(2S,3R)-3-[(3S)-3-(4-fluorophenyl)-3-hydroxypropyl]-4-oxo-1-phenylazetidin-2-yl}biphenyl-3-yl)-D-glucitol]",67
2,"CS(=O)(=O)c1cccc(-c2ccc([C@@H]3[C@@H](CC[C@H](O)c4ccc(F)cc4)C(=O)N3c3ccccc3)c(O)c2)c1 [Example 123, (3R,4S)-3-[(3S)-3-(4-fluorophenyl)-3-hydroxypropyl]-4-[3-hydroxy-3'-(methylsulfonyl)biphenyl-4-yl]-1-phenylazetidin-2-one]",72
3,"O=C1[C@H](CC[C@H](O)c2ccc(F)cc2)[C@@H](c2ccc(-c3cccc(O)c3)cn2)N1c1ccccc1 [Example 49, (3R,4S)-3-[(3S)-3-(4-fluorophenyl)-3-hydroxypropyl]-4-[5-(3-hydroxyphenyl)pyridin-2-yl]-1-phenylazetidin-2-one]",30
4,"O=C1[C@H](CC[C@H](O)c2ccc(F)cc2)[C@@H](c2ccc(-c3cccc([C@H](O)[C@H]4OC(O)[C@H](O)[C@@H](O)[C@@H]4O)c3)cc2)N1c1ccccc1 (stereo partly drawn) [Example 71, (6S)-6-C-(4'-{(2S,3R)-3-[(3S)-3-(4-Fluorophenyl)-3-hydroxypropyl]-4-oxo-1-phenylazetidin-2-yl}biphenyl-3-yl)-D-glucopyranose]",65
5,"O=C1[C@H](CC[C@H](O)c2ccc(F)cc2)[C@@H](c2ccc(-c3cccc([C@@H](O)[C@H]4OC(O)[C@H](O)[C@@H](O)[C@@H]4O)c3)cc2O)N1c1ccccc1 (stereo partly drawn) [Example 74, (6R)-6-C-(4'-{(2S,3R)-3-[(3S)-3-(4-Fluorophenyl)-3-hydroxypropyl]-4-oxo-1-phenylazetidin-2-yl}-3'-hydroxybiphenyl-3-yl)-D-glucopyranose]",67

# From patent EP1832576A1, “4-Biarylyl-1-phenolyzetidin-2-ones” (Microbia Inc., priority 2003, dated 2005)
